In patent US8247211B2, “Glycopeptide antibiotics” (American Cyanamid Company, priority 2001, dated 2012):
≈ marks a conversion by molar mass, not a printed value.

Assays:
Enterococcus sp. = test: In vitro antibacterial evaluation: minimum inhibitory concentration (MIC), broth dilution method; format: cell-based; details: broth dilution, 18 hours at 35° C.
Procedure, shortened: (§1)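 Following NCCLS approved standard M7-A2, compounds are serially diluted from 64 to 0.06 μg/mL in Muller-Hinton II […] and inoculated at 5×10^5 CFU/mL; the MIC is the minimum concentration at which growth is inhibited.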

Escherichia coli = test: as above; format: cell-based; details: 5×10^5 CFU/mL, 18 hours at 35° C.
Procedure, shortened: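 MIC read as lowest drug level preventing visible growth. Organisms at 5×10^5 CFU/mL were exposed to a 64-0.06 μg/mL dilution series in Muller-Hinton II […] following NCCLS broth dilution standard M7-A2.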

Staphylococcus sp. = test: as above; format: cell-based; details: for MIC Staphylococcus aureus (ATCC 29213): strain ATCC 29213; for MIC Staphylococcus aureus (GC 1131): strain GC 1131; for MIC Staphylococcus aureus (GC 4541): strain GC 4541; for MIC Staphylococcus aureus (GC 4542): strain GC 4542; for MIC Staphylococcus aureus-SMITH (GC 4543): strain GC 4543; for MIC Staphylococcus aureus (GC 4544): strain GC 4544; for MIC Staphylococcus aureus (GC 4545): strain GC 4545; for MIC Staphylococcus haemolyticus (GC 4546): strain GC 4546; for MIC Coagulase Negative Staphylococcus (GC 4547): strain GC 4547; for MIC Coagulase Negative Staphylococcus (GC 4548): strain GC 4548; for MIC Coagulase Negative Staphylococcus (GC 4549): strain GC 4549; for MIC Coagulase Negative Staphylococcus (GC 4551): strain GC 4551; for MIC Coagulase Negative Staphylococcus (ID-3941): strain ID-3941; for MIC Staphylococcus aureus (GC 3051): strain GC 3051; for MIC Staphylococcus aureus (GC 3053): strain GC 3053; for MIC Coagulase Negative Staphylococcus (GC 6257): strain GC 6257
Procedure, shortened: as §1

Streptococcus sp. = test: as above; format: cell-based; details: broth dilution, 18 hours at 35° C.
Procedure, shortened: as §1

[1] = system: Enterococcus faecalis (GC 6189), vancomycin resistant strain; test: Acute lethal infection in mice (ED50); format: in vivo; details: female CD-1 mice, intraperitoneal challenge, intravenous dose 30 min. after infection, 7 day survival ratios
Procedure, shortened: (§2)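 Female CD-1 mice (20 ± 1-2 g) were infected intraperitoneally with enough bacteria, suspended in Trypticase Soy Broth or hog gastric mucin, to kill untreated controls within 24-48 hr. Compound in saline or 5% dextrose was given intravenously 30 min after infection. ED50 came from pooled 7-day survival over 3 tests.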

[2] = system: Staphylococcus aureus-SMITH (GC 4543); test: Acute lethal infection in mice (ED50); format: in vivo; details: female CD-1 mice, intraperitoneal challenge, intravenous dose 30 min. after infection, 7 day survival ratios
Procedure, shortened: as §2

[3] = system: Streptococcus pneumoniae (GC 1894), penicillin resistant strain; test: Acute lethal infection in mice (ED50); format: in vivo; details: female CD-1 mice, intraperitoneal challenge, intravenous dose 30 min. after infection, 7 day survival ratios
Procedure, shortened: as §2

[4] = Anatomic pathology (heart and kidney histopathology) in mice; format: in vivo, CD-1 mice; details: 20 mg/kg intravenously daily for 9 days, microscopic histopathology on day 10
Procedure, shortened: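 Juvenile CD-1 mice (20 days old; 5 vehicle, 5 treated) received glycopeptide antibiotic 20 mg/kg i.v. daily for 9 days. Necropsied tissues formalin-fixed, paraffin-embedded, H&E stained and examined microscopically; findings graded slight to severe versus controls.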

[5] = broth dilution, 18 hours at 35° C.

## CCCC(C)C1OCC2OC(OC3C(CO)OC(Oc4ccc(CC5NC(=O)C(C(C)c6ccccc6)NC(=O)CNC(=O)C(CO)NC(=O)C(C(O)C6CNC(=N)N6C6OC(CO)C(O)C(O)C6O)NC(=O)C(C(O)C6CNC(=N)N6)NC5=O)cc4)C(O)C3O)C(O)C(O)C2O1 (stereo not drawn) [Example 111]
Enterococcus sp.; 5×10^5 CFU/mL
  MIC Enterococccus avium (GC 4558): 2 µg/mL (≈ 1.45 µM)
  MIC Enterococccus faecalis (ATCC 29212): 2 µg/mL (≈ 1.45 µM)
  MIC Enterococccus faecalis (GC 4552): 2 µg/mL (≈ 1.45 µM)
  MIC Enterococccus faecalis (GC 4553): 2 µg/mL (≈ 1.45 µM)
  MIC Enterococccus faecalis (GC 4554): 2 µg/mL (≈ 1.45 µM)
  MIC Enterococccus faecium (GC 2243): 1 µg/mL (≈ 0.726 µM)
  MIC Enterococccus faecium (GC 4556): 2 µg/mL (≈ 1.45 µM)
  MIC Enterococccus faecium (GC 4557): 0.5 µg/mL (≈ 0.363 µM)
  MIC Enterococcus faecalis (GC 2242): 1 µg/mL (≈ 0.726 µM)
Escherichia coli
  MIC Escherichia coli (ATCC 25922): 32 µg/mL (≈ 23.2 µM)
Staphylococcus sp.
  MIC Staphylococcus aureus (ATCC 29213): 1 µg/mL (≈ 0.726 µM)
  MIC Staphylococcus aureus (GC 1131): 1 µg/mL (≈ 0.726 µM)
  MIC Staphylococcus aureus (GC 4541): 1 µg/mL (≈ 0.726 µM)
  MIC Staphylococcus aureus (GC 4542): 1 µg/mL (≈ 0.726 µM)
  MIC Staphylococcus aureus (GC 4544): 1 µg/mL (≈ 0.726 µM)
  MIC Staphylococcus aureus (GC 4545): 1 µg/mL (≈ 0.726 µM)
  MIC Staphylococcus haemolyticus (GC 4546): 1 µg/mL (≈ 0.726 µM)
  MIC Coagulase Negative Staphylococcus (GC 4547): 0.5 µg/mL (≈ 0.363 µM)
  MIC Coagulase Negative Staphylococcus (GC 4548): 1 µg/mL (≈ 0.726 µM)
  MIC Coagulase Negative Staphylococcus (GC 4549): 0.5 µg/mL (≈ 0.363 µM)
  MIC Coagulase Negative Staphylococcus (GC 4551): 1 µg/mL (≈ 0.726 µM)
  MIC Coagulase Negative Staphylococcus (ID-3941): 1 µg/mL (≈ 0.726 µM)
Staphylococcus sp.; [5]
  MIC Staphylococcus aureus (ATCC 29213): 1 µg/mL (≈ 0.726 µM)
  MIC Staphylococcus aureus (GC 1131): 1 µg/mL (≈ 0.726 µM)
  MIC Staphylococcus aureus (GC 4541): 1 µg/mL (≈ 0.726 µM)
  MIC Staphylococcus aureus (GC 4542): 1 µg/mL (≈ 0.726 µM)
  MIC Staphylococcus aureus-SMITH (GC 4543): 1 µg/mL (≈ 0.726 µM)
  MIC Staphylococcus aureus (GC 4544): 1 µg/mL (≈ 0.726 µM)
  MIC Staphylococcus aureus (GC 4545): 1 µg/mL (≈ 0.726 µM)
  MIC Staphylococcus haemolyticus (GC 4546): 1 µg/mL (≈ 0.726 µM)
  MIC Coagulase Negative Staphylococcus (GC 4547): 0.5 µg/mL (≈ 0.363 µM)
  MIC Coagulase Negative Staphylococcus (GC 4548): 1 µg/mL (≈ 0.726 µM)
  MIC Coagulase Negative Staphylococcus (GC 4549): 0.5 µg/mL (≈ 0.363 µM)
  MIC Coagulase Negative Staphylococcus (GC 4551): 1 µg/mL (≈ 0.726 µM)
  MIC Coagulase Negative Staphylococcus (ID-3941): 1 µg/mL (≈ 0.726 µM)
Staphylococcus sp.; 18 hours at 35° C.
  MIC Staphylococcus aureus-SMITH (GC 4543): 1 µg/mL (≈ 0.726 µM)
Streptococcus sp.; 5×10^5 CFU/mL
  MIC Streptococcus agalactiae (GC 4564): 1 µg/mL (≈ 0.726 µM)
  MIC Streptococcus pneumoniae (GC 4565): 0.5 µg/mL (≈ 0.363 µM)
  MIC Streptococcus pyogenes (ID-3187): 0.5 µg/mL (≈ 0.363 µM)
[1]
  median effective dose (ED50), Enterococcus faecalis (GC 6189): 0.28 mg/kg
[2]
  median effective dose (ED50), Staphylococcus aureus-SMITH (GC 4543): 0.14 mg/kg
[3]
  median effective dose (ED50), Streptococcus pneumoniae (GC 1894): 0.03 mg/kg

## N=C1NCC(C(O)C2NC(=O)C(Cc3ccc(OC4OC(CO)C(OC5OC6COC7(OC6C(O)C5O)C5CC6CC(C5)CC7C6)C(O)C4O)cc3)NC(=O)C(CC3CCCCC3)NC(=O)CNC(=O)C(CO)NC(=O)C(C(O)C3CNC(=N)N3C3OC(CO)C(O)C(O)C3O)NC2=O)N1 (stereo not drawn) [Example 106, Cyclo[3-cyclohexylalanyl-O-[4-O-[4,6-O-(2-adamantylidene)hexopyranosyl]hexopyranosyl]-tyrosyl-3-(2-iminoimidazolidin-4-yl)seryl-3-(3-hexopyranosyl-2-iminoimidazolidin-4-yl)-serylserylglycyl]]
Enterococcus sp.; Enterococcus avium (GC 4558)
  MIC Enterococcus avium (GC 4558): 1 to 2 µg/mL
Enterococcus sp.; Enterococcus faecalis (ATCC 29212)
  MIC Enterococcus faecalis (ATCC 29212): 0.5 to 2 µg/mL
Enterococcus sp.; Enterococcus faecalis (GC 2242)
  MIC Enterococcus faecalis (GC 2242): 0.5 to 2 µg/mL
Enterococcus sp.; Enterococcus faecalis (GC 2691)
  MIC Enterococcus faecalis (GC 2691): 1 to 2 µg/mL
Enterococcus sp.; Enterococcus faecalis (GC 3059)
  MIC Enterococcus faecalis (GC 3059): 1 to 2 µg/mL
Enterococcus sp.; Enterococcus faecalis (GC 4552)
  MIC Enterococcus faecalis (GC 4552): 1 to 2 µg/mL
Enterococcus sp.; Enterococcus faecalis (GC 4553)
  MIC Enterococcus faecalis (GC 4553): 1 to 2 µg/mL
Enterococcus sp.; Enterococcus faecalis (GC 4554)
  MIC Enterococcus faecalis (GC 4554): 1 to 2 µg/mL
Enterococcus sp.; Enterococcus faecalis (GC 6189)
  MIC Enterococcus faecalis (GC 6189): 1 to 2 µg/mL
Enterococcus sp.; Enterococcus faecium (GC 2243)
  MIC Enterococcus faecium (GC 2243): 0.5 to 2 µg/mL
Enterococcus sp.; Enterococcus faecium (GC 4556)
  MIC Enterococcus faecium (GC 4556): 0.5 to 2 µg/mL
Enterococcus sp.; Enterococcus faecium (GC 4557)
  MIC Enterococcus faecium (GC 4557): 0.5 to 2 µg/mL
Enterococcus sp.; 5×10^5 CFU/mL
  MIC Enterococccus avium (GC 4558): 1 to 2 µg/mL
  MIC Enterococccus faecalis (ATCC 29212): 0.5 to 2 µg/mL
  MIC Enterococccus faecalis (GC 2691): 1 to 2 µg/mL
  MIC Enterococccus faecalis (GC 3059): 1 to 2 µg/mL
  MIC Enterococccus faecalis (GC 4552): 1 to 2 µg/mL
  MIC Enterococccus faecalis (GC 4553): 1 to 2 µg/mL
  MIC Enterococccus faecalis (GC 4554): 1 to 2 µg/mL
  MIC Enterococccus faecalis (GC 6189): 1 to 2 µg/mL
  MIC Enterococccus faecium (GC 2243): 0.5 to 2 µg/mL
  MIC Enterococccus faecium (GC 4556): 0.5 to 2 µg/mL
  MIC Enterococccus faecium (GC 4557): 0.5 to 2 µg/mL
  MIC Enterococcus faecalis (GC 2242): 0.5 to 2 µg/mL
Escherichia coli
  MIC Escherichia coli (ATCC 25922): 32 to 64 µg/mL
  MIC Escherichia coli (GC 4559): 32 to 64 µg/mL
  MIC Escherichia coli (GC 4560): 0.5 to 2 µg/mL
Staphylococcus sp.
  MIC Staphylococcus aureus (ATCC 29213): 0.5 to 2 µg/mL
  MIC Staphylococcus aureus (GC 1131): 0.5 to 2 µg/mL
  MIC Staphylococcus aureus (GC 3051): 0.5 to 2 µg/mL
  MIC Staphylococcus aureus (GC 3053): 0.5 to 2 µg/mL
  MIC Staphylococcus aureus (GC 4541): 0.5 to 2 µg/mL
  MIC Staphylococcus aureus (GC 4545): 0.5 to 2 µg/mL
  MIC Staphylococcus haemolyticus (GC 4546): 0.5 to 1 µg/mL
  MIC Coagulase Negative Staphylococcus (GC 4547): 0.5 to 2 µg/mL
  MIC Coagulase Negative Staphylococcus (GC 6257): 0.25 µg/mL (≈ 0.176 µM)
Staphylococcus sp.; [5]
  MIC Staphylococcus aureus (ATCC 29213): 0.5 to 2 µg/mL
  MIC Staphylococcus aureus (GC 1131): 0.5 to 2 µg/mL
  MIC Staphylococcus aureus (GC 3051): 0.5 to 2 µg/mL
  MIC Staphylococcus aureus (GC 3053): 0.5 to 2 µg/mL
  MIC Staphylococcus aureus (GC 4541): 0.5 to 2 µg/mL
  MIC Staphylococcus aureus (GC 4545): 0.5 to 2 µg/mL
  MIC Staphylococcus haemolyticus (GC 4546): 0.5 to 1 µg/mL
  MIC Coagulase Negative Staphylococcus (GC 4547): 0.5 to 2 µg/mL
  MIC Coagulase Negative Staphylococcus (GC 6257): 0.25 µg/mL (≈ 0.176 µM)
Streptococcus sp.; Streptococcus agalactiae (GC 4564)
  MIC Streptococcus agalactiae (GC 4564): <0.03 µg/mL
Streptococcus sp.; Streptococcus pneumoniae (ATCC 6301)
  MIC Streptococcus pneumoniae (ATCC 6301): <0.03 µg/mL
Streptococcus sp.; Streptococcus pneumoniae (GC 1894)
  MIC Streptococcus pneumoniae (GC 1894): <0.03 µg/mL
Streptococcus sp.; Streptococcus pneumoniae (GC 4565)
  MIC Streptococcus pneumoniae (GC 4565): <0.03 µg/mL
Streptococcus sp.; Streptococcus pyogenes (GC 4563)
  MIC Streptococcus pyogenes (GC 4563): <0.03 µg/mL
Streptococcus sp.; 5×10^5 CFU/mL
  MIC Streptococcus agalactiae (GC 4564): <0.03 µg/mL
  MIC Streptococcus pneumoniae (GC 1894): <0.03 µg/mL
  MIC Streptococcus pneumoniae (GC 4565): <0.03 µg/mL
  MIC Streptococcus pneumonine (ATCC 6301): <0.03 µg/mL
  MIC Streptococcus pyogenes (GC 4563): <0.03 µg/mL
[3]
  median effective dose (ED50), Streptococcus pneumoniae (GC 1894): 0.07 mg/kg
[4]
  Anatomical Pathology (Day 10), Heart: 0
